# In PubChem BioAssay (NCI):
#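 Where inhibition never reached the appropriate level, the endpoint shown equals the highest concentration tested. Otherwise, values were interpolated linearly from a five-concentration, 48-hour dose response in 96-well plates. TGI marks complete inhibition of growth.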
# Legend:
# Test in all cases: NCI-60 cell line screen, 48 h
# SF-539 CNS = tested on: SF-539 CNS
# OVCAR-4 ovarian = tested on: OVCAR-4 ovarian
# SK-OV-3 ovarian = tested on: SK-OV-3 ovarian
# SF-295 CNS = tested on: SF-295 CNS
# SR leukemia = tested on: SR leukemia
# IGROV1 ovarian = tested on: IGROV1 ovarian
# HOP-92 NSCLC = tested on: HOP-92 NSCLC
# HL-60(TB) leukemia = tested on: HL-60(TB) leukemia
# TK-10 renal = tested on: TK-10 renal
# NCI-H23 lung = tested on: NCI-H23 lung
# A549 NSCLC = tested on: A549 NSCLC
# SK-MEL-5 melanoma = tested on: SK-MEL-5 melanoma
# OVCAR-8 ovarian = tested on: OVCAR-8 ovarian
# MOLT-4 leukemia = tested on: MOLT-4 leukemia
# SK-MEL-2 melanoma = tested on: SK-MEL-2 melanoma
# A498 renal = tested on: A498 renal
# HCC-2998 colon = tested on: HCC-2998 colon
# SF-268 CNS = tested on: SF-268 CNS
# UACC-257 melanoma = tested on: UACC-257 melanoma
# NCI/ADR-RES ovarian = tested on: NCI/ADR-RES ovarian
# DU-145 prostate = tested on: DU-145 prostate
# PC-3 prostate = tested on: PC-3 prostate
# 786-0 renal = tested on: 786-0 renal
# MDA-MB-231 breast = tested on: MDA-MB-231 breast
# SK-MEL-28 melanoma = tested on: SK-MEL-28 melanoma
# NCI-H522 lung = tested on: NCI-H522 lung
# RPMI-8226 leukemia = tested on: RPMI-8226 leukemia
# KM12 colon = tested on: KM12 colon
# MCF7 breast = tested on: MCF7 breast
# CCRF-CEM leukemia = tested on: CCRF-CEM leukemia
# SNB-19 CNS = tested on: SNB-19 CNS
# MALME-3M melanoma = tested on: MALME-3M melanoma
# COLO 205 colon = tested on: COLO 205 colon
# OVCAR-5 ovarian = tested on: OVCAR-5 ovarian
# EKVX NSCLC = tested on: EKVX NSCLC
# M14 melanoma = tested on: M14 melanoma
# T-47D breast = tested on: T-47D breast
# HCT-116 colon = tested on: HCT-116 colon
# HS 578T breast = tested on: HS 578T breast
# NCI-H460 lung = tested on: NCI-H460 lung
# MDA-MB-435 = tested on: MDA-MB-435
# UO-31 renal = tested on: UO-31 renal
# RXF 393 renal = tested on: RXF 393 renal
# OVCAR-3 ovarian = tested on: OVCAR-3 ovarian
# CAKI-1 renal = tested on: CAKI-1 renal
# HT29 colon = tested on: HT29 colon
# SN12C renal = tested on: SN12C renal
# HCT-15 colon = tested on: HCT-15 colon
# HOP-62 NSCLC = tested on: HOP-62 NSCLC
# ACHN renal = tested on: ACHN renal
# BT-549 breast = tested on: BT-549 breast
# K-562 leukemia = tested on: K-562 leukemia
# NCI-H226 lung = tested on: NCI-H226 lung
# U251 CNS = tested on: U251 CNS
smiles,measurement,setting,value
O=C(Nc1ccc(Cl)cc1)c1cc(S(=O)(=O)Nc2nnc3c(Cl)cc(C(F)(F)F)cn23)c(S)cc1Cl,TGI,SF-539 CNS,> 100 µM
same,TGI,OVCAR-4 ovarian,> 100 µM
same,TGI,SK-OV-3 ovarian,> 100 µM
same,TGI,SF-295 CNS,> 100 µM
same,TGI,SR leukemia,> 100 µM
same,TGI,IGROV1 ovarian,> 100 µM
same,TGI,HOP-92 NSCLC,> 100 µM
same,TGI,HL-60(TB) leukemia,> 100 µM
same,TGI,TK-10 renal,> 100 µM
same,TGI,NCI-H23 lung,> 100 µM
same,TGI,A549 NSCLC,> 100 µM
same,TGI,SK-MEL-5 melanoma,> 100 µM
same,TGI,OVCAR-8 ovarian,> 100 µM
same,TGI,MOLT-4 leukemia,> 100 µM
same,TGI,SK-MEL-2 melanoma,74.6 µM
same,TGI,A498 renal,86.3 µM
same,TGI,HCC-2998 colon,> 100 µM
same,TGI,SF-268 CNS,> 100 µM
same,TGI,UACC-257 melanoma,> 100 µM
same,TGI,NCI/ADR-RES ovarian,> 100 µM
same,TGI,DU-145 prostate,> 100 µM
same,TGI,PC-3 prostate,> 100 µM
same,TGI,786-0 renal,> 100 µM
same,TGI,MDA-MB-231 breast,> 100 µM
same,TGI,SK-MEL-28 melanoma,> 100 µM
same,TGI,NCI-H522 lung,> 100 µM
same,TGI,RPMI-8226 leukemia,> 100 µM
same,TGI,KM12 colon,> 100 µM
same,TGI,MCF7 breast,> 100 µM
same,TGI,CCRF-CEM leukemia,> 100 µM
same,TGI,SNB-19 CNS,> 100 µM
same,TGI,MALME-3M melanoma,> 100 µM
same,TGI,COLO 205 colon,> 100 µM
same,TGI,OVCAR-5 ovarian,> 100 µM
same,TGI,EKVX NSCLC,> 100 µM
same,TGI,M14 melanoma,> 100 µM
same,TGI,T-47D breast,> 100 µM
same,TGI,HCT-116 colon,> 100 µM
same,TGI,HS 578T breast,> 100 µM
same,TGI,NCI-H460 lung,> 100 µM
same,TGI,MDA-MB-435,> 100 µM
same,TGI,UO-31 renal,> 100 µM
same,TGI,RXF 393 renal,> 100 µM
same,TGI,OVCAR-3 ovarian,> 100 µM
same,TGI,CAKI-1 renal,> 100 µM
same,TGI,HT29 colon,> 100 µM
same,TGI,SN12C renal,> 100 µM
same,TGI,HCT-15 colon,> 100 µM
same,TGI,HOP-62 NSCLC,> 100 µM
same,TGI,ACHN renal,> 100 µM
same,TGI,BT-549 breast,> 100 µM
same,TGI,K-562 leukemia,> 100 µM
same,TGI,NCI-H226 lung,> 100 µM
same,TGI,U251 CNS,> 100 µM
